Measured values from patent US6538001B1, “Crystalline modification of 5-fluoro-1-(tetrahydro-2-furyl) uracil and complex compounds based thereon, producing antineoplastic effect” (priority 2001, dated 2003).
≈ marks a conversion by molar mass, not a printed value. One block for each molecule: values may come before it.

Experiments:
[1] = Determination of solubility (USP XXIII article Solubility); format: physicochemical
Procedure: The solubility was determined in accordance with the requirements set out in the article “Solubility”, USPXXTIII (1995, p. 2071).

[2] = tested on: uterine neck cancer cells; assay: Cytotoxicity (MTT) on a culture of uterine neck cancer cells; format: cell-based; design: Effect on the proliferation of cancer cells: dose or concentration left out as unconfirmed; conditions: for Optical density at 540 nm: 4 days
Procedure: The determination was carried out by following the known procedure (Mosmann N. T., J. Immunology Methods, 1983, vol. 65, 55-63, Carmichel J. et al., Cancer Res., 1987, vol. 47, 936-946) on a culture of uterine neck cancer cells. The cells were grown at 37° C. on the RPMI 1640 medium with additives of a 10%embryonal serum of cows and 200 u/ml of gentamicin. CO2 content in the incubator atmosphere was 10%. The cells which were in the exponential phase of growth were suspended with trypsin and inoculated in an amount of 4×10^3 into each socket of a 96-socket dish for monolayer cultures. Solutions of samples of the preparations to be investigated were prepared by dissolving 23 mg of each preparation in 10 ml of a culture broth, 10^−2 M solutions being thus obtained. These were starting solutions for obtaining solutions of a lower concentration by diluting them with the culture broth. Directly before adding the solutions to the cells, these solutions were sterilized by filtering through millipore filters. One day after the inoculation of the cells, solutions of samples of the preparations to be investigated in prescribed concentrations were added into each socket of the dish. After that the cells grew for another 4 days.
All in all, 9 concentrations of each of the 4 samples of the investigated preparations were tested.
Quantitative estimation of the cytotoxicity of the investigated preparations was carried out with the use of 3-(4,5-dimethylthiazol-2-yl)-2,5-diphenyltetrazolium bromide (MTT). […] 0.5 mg/ml was added into each socket of the dish 4 hours before the completion of cells cultivation. On completion of the incubation, the culture broth was removed from the dish sockets, the formasane crystals were dissolved, and the cells were scanned on an automatic Multiscan MCC/340P reader at the 540 nm wavelength. The results were calculated in percent of the cells subjected to the effect of the investigated preparations, absorbed at 540 nm, as against the absorption of control cells.
The action of each concentration of the investigated preparations on cancer cells was estimated from the results of 4-6 independent experiments, treated by methods of mathematical statistics.

- Solubility, % with respect to tegafur ([1]; temperature of solvent 20 °C): 187.5%
SMILES: O=c1[nH]c(=O)n(C2CCCO2)cc1F (stereo not drawn) [Form V of tegafur, 5-fluoro-1-(tetrahydro-2-furyl)uracil]
- Solubility compared with pharmacopeial tegafur ([1]; in words): higher than the solubility of pharmacopeial tegafur
- Optical density at 540 nm ([2]; 5 × 10^−3 M (on conversion to tegafur), MTT): 0.25 ± 0.02
- Optical density at 540 nm ([2]; 5 × 10^−4 M (on conversion to tegafur), MTT): 0.44 ± 0.05
- Optical density at 540 nm ([2]; 5 × 10^−5 M (on conversion to tegafur), MTT): 0.70 ± 0.03
- Optical density at 540 nm ([2]; 5 × 10^−6 M (on conversion to tegafur), MTT): 0.73 ± 0.03
- Optical density at 540 nm ([2]; 10^−2 M (on conversion to tegafur), MTT): 0.16 ± 0.01
- Optical density at 540 nm ([2]; 10^−3 M (on conversion to tegafur), MTT): 0.35 ± 0.02
- Optical density at 540 nm ([2]; 10^−4 M (on conversion to tegafur), MTT): 0.56 ± 0.06
- Optical density at 540 nm ([2]; 10^−5 M (on conversion to tegafur), MTT): 0.73 ± 0.08
- Optical density at 540 nm ([2]; 10^−6 M (on conversion to tegafur), MTT): 0.79 ± 0.08
- Inhibition of proliferation more intensive than tegafur ([2]; at the concentration of 10^−4 M, relative to tegafur): 70%
- Concentration at which the proliferation of cells is inhibited ([2]; uterine neck cancer cells, MTT): 50 µM

- solubility ([1]; 20 °C, thermodynamic from solid, temperature of solvent 20 °C): 8000 µg/mL (≈ 40 mM)
SMILES: O=c1[nH]c(=O)n(C2CCCO2)cc1F (stereo not drawn) [pharmacopeial tegafur, 5-fluoro-1-(tetrahydro-2-furyl)uracil, reference compound]
- Optical density at 540 nm ([2]; 5 × 10^−3 M (on conversion to tegafur), MTT, listed as Pharmacopeial tegafur): 0.28 ± 0.005
- Optical density at 540 nm ([2]; 5 × 10^−4 M (on conversion to tegafur), MTT, listed as Pharmacopeial tegafur): 0.56 ± 0.12
- Optical density at 540 nm ([2]; 5 × 10^−5 M (on conversion to tegafur), MTT, listed as Pharmacopeial tegafur): 0.80 ± 0.10
- Optical density at 540 nm ([2]; 5 × 10^−6 M (on conversion to tegafur), MTT, listed as Pharmacopeial tegafur): 0.76 ± 0.08
- Optical density at 540 nm ([2]; 10^−2 M (on conversion to tegafur), MTT, listed as Pharmacopeial tegafur): 0.26 ± 0.04
- Optical density at 540 nm ([2]; 10^−3 M (on conversion to tegafur), MTT, listed as Pharmacopeial tegafur): 0.45 ± 0.06
- Optical density at 540 nm ([2]; 10^−4 M (on conversion to tegafur), MTT, listed as Pharmacopeial tegafur): 0.81 ± 0.13
- Optical density at 540 nm ([2]; 10^−5 M (on conversion to tegafur), MTT, listed as Pharmacopeial tegafur): 0.81 ± 0.09
- Optical density at 540 nm ([2]; 10^−6 M (on conversion to tegafur), MTT, listed as Pharmacopeial tegafur): 0.76 ± 0.05
- Effect on the proliferation of cancer cells ([2]; range of concentrations of 10^−6): does not affect the proliferation of cancer cells
